Data on 68 molecules can be found in patent publication US9006450B2 (Boehringer Ingelheim International GmbH, priority 2010, dated 2015).

Molecules are shown by their SMILES.

The assay deals with T1, human ACC2 (Homo sapiens, UniProt O00763).
T1 construct: made in house; host or cells: insect cells (baculoviral expression system)
T1 sequence (O00763 129-2458 limits assumed): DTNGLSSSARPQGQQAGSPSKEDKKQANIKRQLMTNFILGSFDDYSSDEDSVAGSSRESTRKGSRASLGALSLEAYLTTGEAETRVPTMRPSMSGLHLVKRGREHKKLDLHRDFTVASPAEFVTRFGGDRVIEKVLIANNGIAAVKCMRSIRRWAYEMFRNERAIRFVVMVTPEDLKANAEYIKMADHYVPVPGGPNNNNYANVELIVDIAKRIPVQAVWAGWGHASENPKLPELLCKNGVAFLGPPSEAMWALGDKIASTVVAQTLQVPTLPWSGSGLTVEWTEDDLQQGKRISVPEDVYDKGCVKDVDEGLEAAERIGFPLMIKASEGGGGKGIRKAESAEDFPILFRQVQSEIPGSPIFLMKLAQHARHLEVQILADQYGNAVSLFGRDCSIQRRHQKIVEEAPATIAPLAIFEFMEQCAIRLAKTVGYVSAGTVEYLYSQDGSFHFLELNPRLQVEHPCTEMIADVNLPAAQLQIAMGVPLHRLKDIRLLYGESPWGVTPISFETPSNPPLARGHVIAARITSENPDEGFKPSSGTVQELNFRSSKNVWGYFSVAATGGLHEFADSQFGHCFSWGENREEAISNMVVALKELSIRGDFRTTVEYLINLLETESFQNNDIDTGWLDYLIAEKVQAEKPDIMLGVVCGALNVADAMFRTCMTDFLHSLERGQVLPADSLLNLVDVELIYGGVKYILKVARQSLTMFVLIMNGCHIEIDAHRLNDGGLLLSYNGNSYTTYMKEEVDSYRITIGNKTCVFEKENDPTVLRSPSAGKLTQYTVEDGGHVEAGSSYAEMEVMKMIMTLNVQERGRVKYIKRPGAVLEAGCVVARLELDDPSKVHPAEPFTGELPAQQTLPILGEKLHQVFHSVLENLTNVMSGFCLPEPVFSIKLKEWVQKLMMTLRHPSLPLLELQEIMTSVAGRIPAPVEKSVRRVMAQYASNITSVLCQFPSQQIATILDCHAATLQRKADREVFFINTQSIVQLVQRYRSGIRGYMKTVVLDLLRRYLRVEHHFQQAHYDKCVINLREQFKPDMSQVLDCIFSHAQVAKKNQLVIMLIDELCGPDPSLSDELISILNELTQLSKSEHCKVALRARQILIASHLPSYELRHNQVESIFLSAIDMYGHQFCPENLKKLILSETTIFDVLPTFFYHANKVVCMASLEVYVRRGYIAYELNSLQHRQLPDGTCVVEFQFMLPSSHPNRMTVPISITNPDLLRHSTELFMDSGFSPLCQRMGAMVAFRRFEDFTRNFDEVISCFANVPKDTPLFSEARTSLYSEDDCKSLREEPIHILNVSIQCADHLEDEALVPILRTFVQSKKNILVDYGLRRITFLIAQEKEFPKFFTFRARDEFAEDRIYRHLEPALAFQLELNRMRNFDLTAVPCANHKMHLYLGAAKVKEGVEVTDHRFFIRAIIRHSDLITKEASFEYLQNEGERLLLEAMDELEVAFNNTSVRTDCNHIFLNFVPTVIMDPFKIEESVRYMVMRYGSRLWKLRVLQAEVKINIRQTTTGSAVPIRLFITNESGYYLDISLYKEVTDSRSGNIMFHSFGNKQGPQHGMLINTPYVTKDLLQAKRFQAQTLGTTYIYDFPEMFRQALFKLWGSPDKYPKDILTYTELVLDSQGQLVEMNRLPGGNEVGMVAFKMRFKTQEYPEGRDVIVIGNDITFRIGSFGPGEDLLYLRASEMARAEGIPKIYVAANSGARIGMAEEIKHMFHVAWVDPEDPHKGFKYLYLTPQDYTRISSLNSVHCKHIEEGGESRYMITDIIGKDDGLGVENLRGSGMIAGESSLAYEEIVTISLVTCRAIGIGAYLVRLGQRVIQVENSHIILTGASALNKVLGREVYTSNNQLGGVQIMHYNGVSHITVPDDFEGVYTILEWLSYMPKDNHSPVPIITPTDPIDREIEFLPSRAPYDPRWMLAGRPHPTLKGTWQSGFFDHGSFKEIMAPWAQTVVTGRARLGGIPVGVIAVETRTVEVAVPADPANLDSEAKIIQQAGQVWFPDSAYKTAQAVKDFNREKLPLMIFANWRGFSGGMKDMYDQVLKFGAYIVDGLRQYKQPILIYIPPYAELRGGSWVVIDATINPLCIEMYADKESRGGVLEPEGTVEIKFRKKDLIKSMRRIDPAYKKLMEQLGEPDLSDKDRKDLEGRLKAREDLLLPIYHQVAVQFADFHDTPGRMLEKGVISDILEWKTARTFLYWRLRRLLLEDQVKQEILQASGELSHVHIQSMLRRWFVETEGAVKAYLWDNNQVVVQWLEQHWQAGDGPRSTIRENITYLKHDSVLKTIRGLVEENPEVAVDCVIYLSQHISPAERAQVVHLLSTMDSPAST
Nature of the assay: ACC2 assay, spectrophotometric 384 well assay (NADH-linked, coupled lactate dehydrogenase/pyruvate kinase). It is filed as biochemical. To be noted: ACC2 assay, hACC2 construct lacking 128 N-terminal amino acids, 25° C., 340 nm; read-out: IC50. The method in brief:
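ADP output tracked via pyruvate kinase/lactate dehydrogenase NADH oxidation, slope at 340 nm over 15 min, 25° C, with 500 μM ATP and 200 μM each acetyl-CoA and NADH. Enzyme: insect-cell-expressed human ACC2, N-terminal 128 residues deleted; pH 7.5 Tris with citrate, KHCO3. IC50 from four-parameter regression versus vehicle and no-acetyl-CoA controls.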
Turning to `CCOc1ccc(N2CCC(c3ccc([C@H](C)NC(=O)OC)cc3)CC2)c(F)c1` [Example 1.170], the IC50 was 400 nM.
With `CC(=O)N[C@@H](C)c1ccc(C2CCN(c3ccc(OCc4cc(C)on4)cc3)CC2)cc1` [Example 9.28] the figure was 780 nM; with `CC(=O)N[C@@H](C)c1ccc(C2CCN(c3cc(N(C)Cc4ccccc4)ncn3)CC2)cc1` [Example 11.82], 870 nM; with `CC(=O)N[C@@H](C)c1ccc(C2CCN(c3cc(NCc4ccoc4)ncn3)CC2)cc1` [Example 11.101], 4000 nM.
With `CC(C)COc1ccc(N2CCC(c3ccc([C@H](C)NC(=O)C4CC4)cc3)CC2)cc1` [Example 1.114] the figure was 130 nM; with `CCOc1cc(N2CCC(c3ccc([C@H](C)NC(=O)OC)cc3)CC2)ccn1` [Example 1.11], 300 nM.
On to `CC(=O)N[C@@H](C)c1ccc(C2CCN(c3cc(NCc4ccccc4)ncn3)CC2)cc1` [Example 11.55], for which the IC50 was found to be 3700 nM.
With `CCCCOc1cc(N2CCC(c3ccc([C@H](C)NC(C)=O)cc3)CC2)ccn1` [Example 3.4] the figure was 110 nM; with `C[C@H](NC(=O)N(C)C)c1ccc(C2CCN(c3ccc(OC4CCC4)cc3)CC2)cc1` [Example 1.21], 80 nM; with `CC(=O)N[C@@H](C)c1ccc(C2CCN(c3nc4ccccc4nc3C)CC2)cc1` [Example 4.32], 2300 nM.
Consider `CC(=O)N[C@@H](C)c1ccc(C2CCN(c3ccc(OC(C)C)c(Cl)c3)CC2)cc1` [Example 8.25], for which the IC50 turned out to be 710 nM.
With `CCOc1cccc(-c2cc(N3CCC(c4ccc([C@H](C)NC(C)=O)cc4)CC3)ncn2)c1` [Example 22.7] the figure was 4100 nM.
With `CNC(=O)CNC(=O)c1cnc(N2CCC(c3ccc([C@H](C)NC(C)=O)cc3)CC2)nc1` [Example 18.72] the figure was 8900 nM; with `CC(=O)N[C@@H](C)c1ccc(C2CCN(c3ccc(Cl)c(F)c3)CC2)cc1` [Example 1.161], 640 nM; with `COc1cc(-c2cnc(N3CCC(c4ccc([C@H](C)NC(C)=O)cc4)CC3)nc2)ccc1C` [Example 10.65], 330 nM.
On to `CC(=O)N[C@@H](C)c1ccc(C2CCN(c3noc4ccccc34)CC2)cc1` [Example 4.30], for which the IC50 turned out to be 1100 nM.
For `CCOc1cnc(N2CCC(c3ccc([C@H](C)NC(C)=O)cc3)CC2)nc1` [Example 4.50], the IC50 was found to be 460 nM.
With `COCCN(C)C(=O)c1cnc(N2CCC(c3ccc([C@H](C)NC(C)=O)cc3)CC2)nc1` [Example 18.25] the figure was 7100 nM; with `CCOc1ccc(N2CCC(c3ccc([C@H](C)NC(=O)C4CC4)cc3)CC2)cc1` [Example 1.25], 150 nM.
With `CC(=O)N[C@@H](C)c1ccc(C2CCN(c3cc(NC(C)C)ncn3)CC2)cc1` [Example 11.44] the figure was 5000 nM; with `CC(=O)N[C@@H](C)c1ccc(C2CCN(c3cc(N(C)C)ncn3)CC2)cc1` [Example 11.105], 1700 nM; with `CCOc1ccc(N2CCC(c3ccc([C@H](C)NC(=O)COC)cc3)CC2)cc1` [Example 6.15], 1000 nM.
On to `CC(=O)N[C@@H](C)c1ccc(C2CCN(c3ccc(OCCn4ccnc4)cc3)CC2)cc1` [Example 1.109], for which the IC50 is 3100 nM.
For the molecule `CC(=O)N[C@@H](C)c1ccc(C2CCN(c3ncc(-c4cnccc4C)cn3)CC2)cc1` [Example 10.95], the IC50 was found to be 2000 nM.
With `COC(=O)N[C@@H](C)c1ccc(C2CCN(c3ncc4nc(-c5ccccc5)oc4n3)CC2)cc1` [Example 4.48] the figure was 130 nM; with `CCOc1ccc(N2CCC(c3ccc([C@H](C)NC(C)=O)cc3)CC2)cc1C` [Example 8.15], 830 nM.
With `CCC(C)Oc1ccc(N2CCC(c3ccc([C@H](C)NC(=O)N(C)C)cc3)CC2)cc1` (some centres unmarked) [Example 1.7] the figure was 140 nM; with `CC(=O)N[C@@H](C)c1ccc(C2CCN(c3ccc(OC4CC4)cc3OC3CC3)CC2)cc1` [Example 1.94], 210 nM.
With `CCCOc1ccc(N2CCC(c3ccc([C@H](C)NC(C)=O)cc3)CC2)c(Cl)c1` [Example 1.33] the figure was 120 nM; with `CC(=O)N[C@@H](C)c1ccc(C2CCN(c3ccnc(N(C)C4CC4)n3)CC2)cc1` [Example 11.86], 770 nM; with `CC(=O)N[C@@H](C)c1ccc(C2CCN(c3ncc(C(=O)N4[C@@H]5CC[C@H]4C[C@@H](O)C5)cn3)CC2)cc1` [Example 18.36], 13200 nM.
As for `CCOC(=O)c1cc2cc(N3CCC(c4ccc([C@H](C)NC(C)=O)cc4)CC3)ccc2o1` [Example 15.17], the IC50 amounted to 300 nM.
As to `CC(=O)N[C@@H](C)c1ccc(C2CCN(c3ccc(OCCOC4CC4)cc3)CC2)cc1` [Example 9.31], the IC50 was determined as 4800 nM.
As to `CC(=O)N[C@@H](C)c1ccc(C2CCN(c3ccc(C)cn3)CC2)cc1` [Example 5.46], the IC50 came out at 1600 nM.
Consider `CC#CCOc1ccc(N2CCC(c3ccc([C@H](C)NC(C)=O)cc3)CC2)cc1` [Example 9.25], for which the 50% inhibitory concentration (IC50) came out at 1100 nM.
With `CC(=O)N[C@@H](C)c1ccc(C2CCN(c3ncc(-c4ccc(C)cc4)cn3)CC2)cc1` [Example 10.44] the figure was 100 nM.
For `CC(=O)N[C@@H](C)c1ccc(C2CCN(c3cc(Cl)ccn3)CC2)cc1` [Example 5.13], the IC50 amounted to 3000 nM.
With `CC(=O)N[C@@H](C)c1ccc(C2CCN(c3ccnc(NCc4ccccc4)n3)CC2)cc1` [Example 11.56] the figure was 2300 nM; with `CCOc1ccc(N2CCC(c3ccc([C@H](C)NC(=O)c4ccnnc4)cc3)CC2)cc1` [Example 6.19], 1500 nM.
With `CC(=O)N[C@@H](C)c1ccc(C2CCN(c3cc(OC4CCCC4)ncn3)CC2)cc1` [Example 11.7] the figure was 170 nM.
Take `CC#CCOc1nccc(N2CCC(c3ccc([C@H](C)NC(C)=O)cc3)CC2)n1` [Example 11.20]: the IC50 is 1300 nM.
Consider `CC(=O)N[C@@H](C)c1ccc(C2CCN(c3ccc(OCC4CCC4)c(C)c3)CC2)cc1` [Example 9.37], for which the IC50 worked out at 690 nM.
With `CCOc1ccc(N2CCC(c3ccc([C@H](C)NC(=O)CC(C)=O)cc3)CC2)cc1` [Example 30.1] the figure was 2700 nM; with `CC(=O)N[C@@H](C)c1ccc(C2CCN(c3ccc(OCCC(C)C)cc3)CC2)cc1` [Example 9.20], 90 nM; with `CC(=O)N[C@@H](C)c1ccc(C2CCN(c3ncc(-c4ccc(C)nc4)cn3)CC2)cc1` [Example 10.33], 640 nM.
With `CC(=O)N[C@@H](C)c1ccc(C2CCN(c3ccnc(OC4CCCC4)c3)CC2)cc1` [Example 19.4] the figure was 70 nM.
For the molecule `CC(=O)N[C@@H](C)c1ccc(C2CCN(c3ncc(-c4ccc(C)cn4)cn3)CC2)cc1` [Example 10.121], the IC50 worked out at 110 nM.
For the molecule `CC(=O)N[C@@H](C)c1ccc(C2CCN(c3ccc(C4CC4)nn3)CC2)cc1` [Example 1.174], the IC50 worked out at 7500 nM.
With `COc1ncc(-c2cnc(N3CCC(c4ccc([C@H](C)NC(C)=O)cc4)CC3)nc2)cn1` [Example 10.22] the figure was 1100 nM; with `CCCOc1ccc(N2CCC(c3ccc(C(CC)NC(C)=O)cc3)CC2)cc1` (centres unmarked) [Example 1.200], 450 nM; with `CC(=O)N[C@@H](C)c1ccc(C2CCN(c3cc(OCC(C)C)ncn3)CC2)cc1` [Example 11.15], 230 nM.
With `CC(=O)N[C@@H](C)c1ccc(C2CCN(c3ncc(-c4ccc5c(c4)OCO5)cn3)CC2)cc1` [Example 10.87] the figure was 70 nM; with `CC(=O)N[C@@H](C)c1ccc(C2CCN(c3cc(OCCC(C)(C)C)ncn3)CC2)cc1` [Example 11.12], 300 nM; with `COC(=O)N[C@@H](C)c1ccc(C2CCN(c3ccc(OC4CC4)cc3)CC2)cc1` [Example 1.113], 140 nM.
With `COCCOc1cc(N2CCC(c3ccc([C@H](C)NC(C)=O)cc3)CC2)ncn1` [Example 11.29] the figure was 3800 nM.
For the molecule `CC(=O)N[C@@H](C)c1ccc(C2CCN(c3ncc(-c4ccc(CC#N)cc4)cn3)CC2)cc1` [Example 10.18], the IC50 came out at 180 nM.
With `COC(=O)c1cnc(N2CCC(c3ccc([C@H](C)NC(C)=O)cc3)CC2)cn1` [Example 5.53] the figure was 7700 nM; with `CCC(C)Oc1ccc(N2CCC(c3ccc([C@H](C)NC(C)=O)cc3)CC2)cc1Cl` (some centres unmarked) [Example 8.55], 300 nM.
Consider `CC(=O)N[C@@H](C)c1ccc(C2CCN(c3ncc(-c4ccc5[nH]ccc5c4)cn3)CC2)cc1` [Example 10.46], for which the IC50 turned out to be 140 nM.
With `CC(=O)N[C@@H](C)c1ccc(C2CCN(c3cc(NC4CCOCC4)ncn3)CC2)cc1` [Example 11.74] the figure was 8300 nM.
With `CCC(C)Oc1ccc(N2CCC(c3ccc([C@H](C)NC(C)=O)cc3)CC2)cc1OC` (some centres unmarked) [Example 8.54] the figure was 1500 nM.
As for `COc1ccc2cc(-c3cnc(N4CCC(c5ccc([C@H](C)NC(C)=O)cc5)CC4)nc3)ccc2c1` [Example 10.40], the IC50 came to 6900 nM.
With `CC(=O)N[C@@H](C)c1ccc(C2CCN(c3ccc(Cl)cc3)CC2)cc1` [Example 1.46] the figure was 700 nM; with `CCOc1cc(N2CCC(c3ccc([C@H](C)NC(=O)C4CC4)cc3)CC2)ccn1` [Example 1.20], 290 nM.
For `CCOc1ccc(N2CCC(c3ccc([C@H](C)NC(=O)CN)cc3)CC2)cc1` [Example 35.1, (S)-2-Amino-N-(1-{4-[1-(4-ethoxyphenyl)piperidin-4-yl]phenyl}ethyl)acetamide], the IC50 was 5400 nM.
With `CC(=O)N[C@@H](C)c1ccc(C2CCN(c3ncc(C(=O)NCC4CC4)cn3)CC2)cc1` [Example 18.77] the figure was 1700 nM; with `CC(=O)N[C@@H](C)c1ccc(C2CCN(c3ncc(-c4ccc5c(ccn5C)c4)cn3)CC2)cc1` [Example 10.25], 320 nM.
With `CC(=O)N[C@@H](C)c1ccc(C2CCN(c3cc(N[C@H](C)C(C)C)ncn3)CC2)cc1` [Example 11.76] the figure was 6000 nM.
